# Measurements from US20170326155A1, “NOVEL PHARM[…] FOR NEUROMUSCULAR CONTRACTURES” (Children's Hospital Medical Center, priority 2016, published 2017).
# Columns and labels:
# [1] = system: shoulder contractures following NBPI; assay: Mouse model of neonatal brachial plexus injury (NBPI), muscle contracture formation; format: in vivo, mice; settings: for severity of shoulder contractures: single systemic dose following NBPI, 4 weeks post NBPI, compared to controls, preliminary experiment
# Text: Experimental Model: Unilateral brachial plexus injuries are surgically created at 5 days of age in mice. The immediate paralysis mimics that of the human condition, and can be modulated by different surgical techniques of nerve injury. Within 4 weeks after NBPI, muscle contractures form at the shoulder and elbow, replicating the human contractures. (Not shown.) Muscles can be harvested for analysis of growth and cellular behavior. The use of unilateral injuries preserves the contralateral limb as a control, minimizing the number of mice required.
# [2] = system: adult skeletal muscle regeneration; settings: not tested in pediatric neuromuscular conditions; cited from earlier work
Structure (SMILES),"contracture severity following NBPI ([1]; neonatal treatment, preliminary)",severity of shoulder contractures [1],severity of shoulder contractures ([1]; listed as nandrolone),adult skeletal muscle regeneration [2]
C[C@]12CC[C@H]3[C@@H](CCC4=CC(=O)CC[C@@H]43)[C@@H]1CC[C@@H]2O [Nandrolone],lessened contracture severity,lessened the severity of shoulder contractures,decreased the severity of the shoulder contracture,–
CCCCc1nc(Cl)c(CO)n1Cc1ccc(-c2ccccc2-c2nn[nH]n2)cc1 [losartan],–,–,–,improve adult skeletal muscle regeneration
